# Assay results taken from patent US12157741B2, “Macrocyclic inhibitors of DYRK1A” (DANA-FARBER CANCER INSTITUTE, INC., priority 2018, dated 2024).
# Like-named read-outs stand apart in the source and are kept apart here.
# Assays:
# Format in all cases: binding
# various enzymes [1] = biological target: various enzymes (Homo sapiens, UniProt Q9UKI8); details: compound 1 uM
# Protocol: (§1) Ambit profiling was conducted in accordance with the manufacturer's instructions.
# various enzymes [2] = biological target: various enzymes (Homo sapiens, UniProt Q86V86); details: compound 1 uM
# Protocol: as §1
# various enzymes [3] = biological target: various enzymes (Homo sapiens, UniProt Q96GD4); details: compound 1 uM
# Protocol: as §1
# various enzymes [4] = biological target: various enzymes (Homo sapiens, UniProt Q9Y6R4); details: compound 1 uM
# Protocol: as §1
# various enzymes [5] = biological target: T1, various enzymes (Homo sapiens, UniProt O14733); details: compound 1 uM
# T1 sequence (O14733 1-419): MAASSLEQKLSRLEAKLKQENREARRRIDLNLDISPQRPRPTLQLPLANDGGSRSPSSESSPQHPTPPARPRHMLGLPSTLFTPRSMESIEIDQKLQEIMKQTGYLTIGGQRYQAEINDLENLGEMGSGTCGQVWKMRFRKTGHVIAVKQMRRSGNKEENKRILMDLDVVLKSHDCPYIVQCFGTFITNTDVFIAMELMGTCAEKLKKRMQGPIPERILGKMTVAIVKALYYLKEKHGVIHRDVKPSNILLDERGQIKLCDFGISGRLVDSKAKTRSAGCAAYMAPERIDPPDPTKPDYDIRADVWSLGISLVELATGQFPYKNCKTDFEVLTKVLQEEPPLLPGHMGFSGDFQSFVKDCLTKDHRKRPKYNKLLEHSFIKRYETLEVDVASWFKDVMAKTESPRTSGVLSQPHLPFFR
# Protocol: as §1
# various enzymes [6] = biological target: various enzymes (Homo sapiens, UniProt O14578); details: compound 1 uM
# Protocol: as §1
# various enzymes [7] = biological target: various enzymes (Homo sapiens, UniProt Q13163); details: compound 1 uM
# Protocol: as §1
# various enzymes [8] = biological target: various enzymes (Homo sapiens, UniProt Q9UM73, C1156Y)
# Protocol: as §1
# various enzymes [9] = biological target: various enzymes (Homo sapiens, UniProt Q9Y616); details: compound 1 uM
# Protocol: as §1
# various enzymes [10] = biological target: various enzymes (Homo sapiens, UniProt P22607); details: compound 1 uM
# Protocol: as §1
# various enzymes [11] = biological target: various enzymes (Homo sapiens, UniProt Q9H4B4); details: compound 1 uM
# Protocol: as §1
# various enzymes [12] = biological target: various enzymes (Homo sapiens, UniProt Q16512); details: compound 1 uM
# Protocol: as §1
# various enzymes [13] = biological target: various enzymes (Homo sapiens, UniProt Q9NYY3); details: compound 1 uM
# Protocol: as §1
# various enzymes [14] = biological target: various enzymes (Homo sapiens, UniProt P00519, Y253F)
# Protocol: as §1
# various enzymes [15] = biological target: various enzymes (Homo sapiens, UniProt P06241); details: compound 1 uM
# Protocol: as §1
# various enzymes [16] = biological target: various enzymes (Homo sapiens, UniProt O43353); details: compound 1 uM
# Protocol: as §1
# various enzymes [17] = biological target: various enzymes (Homo sapiens, UniProt P49841); details: compound 1 uM
# Protocol: as §1
# various enzymes [18] = biological target: various enzymes (Homo sapiens, UniProt P51451); details: compound 1 uM
# Protocol: as §1
# various enzymes [19] = biological target: various enzymes (Homo sapiens, UniProt Q7L7X3); details: compound 1 uM
# Protocol: as §1
# various enzymes [20] = biological target: various enzymes (Homo sapiens, UniProt Q13554); details: compound 1 uM
# Protocol: as §1
# various enzymes [21] = biological target: various enzymes (Homo sapiens, UniProt P12931); details: compound 1 uM
# Protocol: as §1
# various enzymes [22] = biological target: various enzymes (Homo sapiens, UniProt O00444); details: compound 1 uM
# Protocol: as §1
# various enzymes [23] = biological target: various enzymes (Homo sapiens, UniProt P00519, F317L); details: compound 1 uM
# Protocol: as §1
# various enzymes [24] = biological target: various enzymes (Homo sapiens, UniProt P42336); details: compound 1 uM
# Protocol: as §1
# various enzymes [25] = biological target: various enzymes (Homo sapiens, UniProt Q13705); details: compound 1 uM
# Protocol: as §1
# various enzymes [26] = biological target: various enzymes (Homo sapiens, UniProt Q02750); details: compound 1 uM
# Protocol: as §1
# various enzymes [27] = biological target: various enzymes (Homo sapiens, UniProt Q9H2G2); details: compound 1 uM
# Protocol: as §1
# various enzymes [28] = biological target: various enzymes (Homo sapiens, UniProt Q9BUB5); details: compound 1 uM
# Protocol: as §1
# various enzymes [29] = biological target: various enzymes (Homo sapiens, UniProt Q15418); details: compound 1 uM
# Protocol: as §1
# various enzymes [30] = biological target: various enzymes (Homo sapiens, UniProt Q06418); details: compound 1 uM
# Protocol: as §1
# various enzymes [31] = biological target: various enzymes (Homo sapiens, UniProt Q8WTQ7); details: compound 1 uM
# Protocol: as §1
# various enzymes [32] = biological target: various enzymes (Homo sapiens, UniProt Q9UKE5); details: compound 1 uM
# Protocol: as §1
# various enzymes [33] = biological target: various enzymes (Homo sapiens, UniProt P14616); details: compound 1 uM
# Protocol: as §1
# various enzymes [34] = biological target: various enzymes (Homo sapiens, UniProt Q96NX5); details: compound 1 uM
# Protocol: as §1
# various enzymes [35] = biological target: various enzymes (Homo sapiens, UniProt Q86UX6); details: compound 1 uM
# Protocol: as §1
# various enzymes [36] = biological target: various enzymes (Homo sapiens, UniProt O75676); details: compound 1 uM
# Protocol: as §1
# various enzymes [37] = biological target: various enzymes (Homo sapiens, UniProt Q9Y2U5); details: compound 1 uM
# Protocol: as §1
# various enzymes [38] = biological target: various enzymes (Homo sapiens, UniProt O95382); details: compound 1 uM
# Protocol: as §1
# Chain of various enzymes (Homo sapiens, UniProt O75676) (O75676 whole entry): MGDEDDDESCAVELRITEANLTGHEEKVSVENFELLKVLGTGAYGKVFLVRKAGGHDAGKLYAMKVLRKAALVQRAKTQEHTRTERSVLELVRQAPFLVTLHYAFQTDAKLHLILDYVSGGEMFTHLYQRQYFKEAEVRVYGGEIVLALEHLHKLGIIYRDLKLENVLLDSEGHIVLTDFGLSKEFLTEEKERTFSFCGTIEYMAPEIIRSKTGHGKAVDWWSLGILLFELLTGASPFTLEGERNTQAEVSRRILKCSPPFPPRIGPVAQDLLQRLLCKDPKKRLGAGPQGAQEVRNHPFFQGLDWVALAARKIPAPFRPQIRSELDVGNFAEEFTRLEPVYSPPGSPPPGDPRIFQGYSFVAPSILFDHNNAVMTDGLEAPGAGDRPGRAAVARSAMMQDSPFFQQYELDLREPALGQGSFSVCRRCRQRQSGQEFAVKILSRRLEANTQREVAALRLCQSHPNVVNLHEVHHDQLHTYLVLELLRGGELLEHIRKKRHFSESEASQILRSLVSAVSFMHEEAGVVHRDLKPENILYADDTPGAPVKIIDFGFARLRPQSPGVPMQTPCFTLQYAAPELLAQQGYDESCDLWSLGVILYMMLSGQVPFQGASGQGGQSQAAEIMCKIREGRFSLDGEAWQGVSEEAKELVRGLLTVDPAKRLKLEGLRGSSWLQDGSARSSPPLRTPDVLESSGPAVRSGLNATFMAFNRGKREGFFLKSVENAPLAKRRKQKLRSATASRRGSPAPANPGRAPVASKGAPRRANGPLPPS
# Chain of various enzymes (Homo sapiens, UniProt Q15418) (Q15418 whole entry): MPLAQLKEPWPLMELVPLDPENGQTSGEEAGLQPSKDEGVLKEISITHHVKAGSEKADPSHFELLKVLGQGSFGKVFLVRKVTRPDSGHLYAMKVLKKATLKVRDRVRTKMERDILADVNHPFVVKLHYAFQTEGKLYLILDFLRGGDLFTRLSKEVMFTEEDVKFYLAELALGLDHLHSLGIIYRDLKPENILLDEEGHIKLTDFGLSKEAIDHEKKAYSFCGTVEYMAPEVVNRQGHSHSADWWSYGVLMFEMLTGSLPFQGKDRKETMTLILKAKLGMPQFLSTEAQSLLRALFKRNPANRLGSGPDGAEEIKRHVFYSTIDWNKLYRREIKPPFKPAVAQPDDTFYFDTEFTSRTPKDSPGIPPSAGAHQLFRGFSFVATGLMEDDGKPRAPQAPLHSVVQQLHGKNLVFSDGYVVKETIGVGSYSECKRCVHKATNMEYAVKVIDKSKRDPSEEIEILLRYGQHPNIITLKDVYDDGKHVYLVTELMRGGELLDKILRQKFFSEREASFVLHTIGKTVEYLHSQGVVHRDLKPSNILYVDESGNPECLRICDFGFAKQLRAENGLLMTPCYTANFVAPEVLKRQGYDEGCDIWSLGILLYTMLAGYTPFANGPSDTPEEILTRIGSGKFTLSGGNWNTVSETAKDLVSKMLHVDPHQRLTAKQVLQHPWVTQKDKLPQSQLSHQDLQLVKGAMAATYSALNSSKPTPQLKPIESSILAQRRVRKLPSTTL
# Chain of various enzymes (Homo sapiens, UniProt Q16512) (Q16512 whole entry): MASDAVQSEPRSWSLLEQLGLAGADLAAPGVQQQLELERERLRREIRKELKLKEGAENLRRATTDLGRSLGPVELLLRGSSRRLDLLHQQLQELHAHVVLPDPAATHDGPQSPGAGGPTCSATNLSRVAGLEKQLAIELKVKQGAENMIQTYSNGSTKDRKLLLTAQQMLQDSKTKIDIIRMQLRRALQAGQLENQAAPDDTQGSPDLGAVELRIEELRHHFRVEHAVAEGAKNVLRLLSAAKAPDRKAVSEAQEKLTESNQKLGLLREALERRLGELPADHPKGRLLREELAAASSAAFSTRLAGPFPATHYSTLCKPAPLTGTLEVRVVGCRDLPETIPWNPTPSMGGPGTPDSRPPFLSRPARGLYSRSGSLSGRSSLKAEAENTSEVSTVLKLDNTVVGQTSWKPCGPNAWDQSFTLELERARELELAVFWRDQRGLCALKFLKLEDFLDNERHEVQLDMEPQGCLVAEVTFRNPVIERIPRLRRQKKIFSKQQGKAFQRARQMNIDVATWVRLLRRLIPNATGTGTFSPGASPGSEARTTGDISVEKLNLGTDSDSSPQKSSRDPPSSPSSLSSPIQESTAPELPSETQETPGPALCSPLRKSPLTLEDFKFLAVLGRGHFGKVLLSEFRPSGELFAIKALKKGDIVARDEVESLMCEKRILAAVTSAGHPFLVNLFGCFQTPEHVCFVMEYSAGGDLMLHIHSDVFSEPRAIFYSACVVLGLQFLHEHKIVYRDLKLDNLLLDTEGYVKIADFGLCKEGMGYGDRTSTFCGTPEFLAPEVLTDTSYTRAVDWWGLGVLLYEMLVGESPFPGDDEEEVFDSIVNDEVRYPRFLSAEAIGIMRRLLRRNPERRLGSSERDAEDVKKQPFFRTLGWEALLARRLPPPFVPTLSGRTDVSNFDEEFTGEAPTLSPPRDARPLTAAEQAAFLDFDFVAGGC
# Chain of various enzymes (Homo sapiens, UniProt Q9UKI8) (Q9UKI8 whole entry): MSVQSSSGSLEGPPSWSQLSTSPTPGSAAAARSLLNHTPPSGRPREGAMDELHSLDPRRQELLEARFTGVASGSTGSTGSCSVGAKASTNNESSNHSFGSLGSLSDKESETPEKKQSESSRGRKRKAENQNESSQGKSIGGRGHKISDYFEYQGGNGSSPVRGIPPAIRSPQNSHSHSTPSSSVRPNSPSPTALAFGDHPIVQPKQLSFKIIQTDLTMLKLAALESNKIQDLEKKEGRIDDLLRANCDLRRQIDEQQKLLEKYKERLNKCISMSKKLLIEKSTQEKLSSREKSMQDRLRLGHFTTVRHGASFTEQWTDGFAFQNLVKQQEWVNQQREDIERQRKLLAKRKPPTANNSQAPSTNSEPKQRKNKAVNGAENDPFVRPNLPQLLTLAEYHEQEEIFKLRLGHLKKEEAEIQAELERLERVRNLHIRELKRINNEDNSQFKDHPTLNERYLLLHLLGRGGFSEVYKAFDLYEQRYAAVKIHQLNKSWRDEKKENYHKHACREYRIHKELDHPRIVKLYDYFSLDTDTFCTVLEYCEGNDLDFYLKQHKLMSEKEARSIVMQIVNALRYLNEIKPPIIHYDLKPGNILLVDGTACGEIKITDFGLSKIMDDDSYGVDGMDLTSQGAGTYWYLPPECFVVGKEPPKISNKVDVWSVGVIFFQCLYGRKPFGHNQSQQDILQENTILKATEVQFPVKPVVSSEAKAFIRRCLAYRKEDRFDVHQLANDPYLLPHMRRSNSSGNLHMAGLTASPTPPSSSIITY
# Chain of various enzymes (Homo sapiens, UniProt Q96GD4) (Q96GD4 whole entry): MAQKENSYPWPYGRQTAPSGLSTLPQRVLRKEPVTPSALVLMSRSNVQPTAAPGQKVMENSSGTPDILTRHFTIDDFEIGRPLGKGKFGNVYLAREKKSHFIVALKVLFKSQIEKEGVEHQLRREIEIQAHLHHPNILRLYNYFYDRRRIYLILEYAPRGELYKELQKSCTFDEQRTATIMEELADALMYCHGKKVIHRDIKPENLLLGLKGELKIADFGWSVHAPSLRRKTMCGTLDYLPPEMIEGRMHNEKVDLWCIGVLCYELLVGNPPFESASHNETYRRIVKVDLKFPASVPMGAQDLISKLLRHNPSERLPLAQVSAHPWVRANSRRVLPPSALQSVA
# Chain of various enzymes (Homo sapiens, UniProt O43353) (O43353 whole entry): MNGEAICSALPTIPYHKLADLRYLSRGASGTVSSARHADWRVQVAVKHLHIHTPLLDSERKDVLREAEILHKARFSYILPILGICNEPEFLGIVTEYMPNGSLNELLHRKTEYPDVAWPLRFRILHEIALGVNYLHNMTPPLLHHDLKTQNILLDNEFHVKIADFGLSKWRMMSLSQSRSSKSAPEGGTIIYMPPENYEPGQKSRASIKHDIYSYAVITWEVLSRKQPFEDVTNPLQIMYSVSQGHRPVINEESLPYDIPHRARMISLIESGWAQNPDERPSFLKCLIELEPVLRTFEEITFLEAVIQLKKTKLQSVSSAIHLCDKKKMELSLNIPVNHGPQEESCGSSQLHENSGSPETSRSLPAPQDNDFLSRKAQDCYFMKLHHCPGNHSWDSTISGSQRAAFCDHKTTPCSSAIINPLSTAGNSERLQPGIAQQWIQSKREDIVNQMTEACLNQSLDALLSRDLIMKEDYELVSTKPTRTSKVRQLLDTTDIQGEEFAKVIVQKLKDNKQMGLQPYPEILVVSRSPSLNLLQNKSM
# Chain of various enzymes (Homo sapiens, UniProt Q9BUB5) (Q9BUB5 whole entry): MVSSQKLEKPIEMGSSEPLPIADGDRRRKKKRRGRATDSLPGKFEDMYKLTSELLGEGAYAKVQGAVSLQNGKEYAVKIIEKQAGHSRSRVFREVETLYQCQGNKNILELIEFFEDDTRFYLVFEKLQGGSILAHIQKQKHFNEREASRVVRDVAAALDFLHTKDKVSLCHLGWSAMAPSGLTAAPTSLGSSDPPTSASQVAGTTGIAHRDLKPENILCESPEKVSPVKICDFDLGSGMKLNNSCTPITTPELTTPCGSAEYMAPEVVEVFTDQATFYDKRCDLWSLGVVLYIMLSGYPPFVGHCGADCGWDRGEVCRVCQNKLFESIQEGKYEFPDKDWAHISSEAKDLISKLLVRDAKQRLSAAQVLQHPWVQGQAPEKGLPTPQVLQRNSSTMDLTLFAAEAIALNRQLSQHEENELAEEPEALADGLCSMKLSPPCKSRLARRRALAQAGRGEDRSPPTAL
# Chain of various enzymes (Homo sapiens, UniProt P49841) (P49841 whole entry): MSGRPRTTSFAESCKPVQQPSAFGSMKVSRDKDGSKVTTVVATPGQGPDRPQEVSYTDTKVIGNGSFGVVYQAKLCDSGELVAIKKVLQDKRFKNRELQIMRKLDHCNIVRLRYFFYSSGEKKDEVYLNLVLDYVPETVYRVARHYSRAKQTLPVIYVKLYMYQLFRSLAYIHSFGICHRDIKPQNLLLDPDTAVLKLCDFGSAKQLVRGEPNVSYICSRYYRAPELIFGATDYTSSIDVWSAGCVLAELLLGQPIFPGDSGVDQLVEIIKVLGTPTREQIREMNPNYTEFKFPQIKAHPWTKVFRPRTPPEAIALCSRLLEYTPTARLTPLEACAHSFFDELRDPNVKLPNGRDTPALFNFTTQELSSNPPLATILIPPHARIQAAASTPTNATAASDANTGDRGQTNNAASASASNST
structure (smiles),measurement,setting,value
"CC(C)N1Cc2nn(C)cc2-c2cnc3[nH]cc(c3c2)-c2cn(nc2C(F)(F)F)CCCC1=O [Compound 45, (Z)-5-isopropyl-31-methyl-13-(trifluoromethyl)-11H,21H,31H-5-aza-2(3,5)-pyrrolo[2,3-b]pyridina-1(4,1),3(4,3)-dipyrazolacyclononaphan-6-one]",Ambit profiling: TLK1,various enzymes [1],55
same,Ambit profiling: PIM3,various enzymes [2],94
same,Ambit profiling: AURKB,various enzymes [3],5.7
same,Ambit profiling: MAP3K4,various enzymes [4],94
same,Ambit profiling: MKK7,various enzymes [5],76
same,Ambit profiling: CIT,various enzymes [6],17
same,Ambit profiling: MEK5,various enzymes [7],11
same,Ambit profiling: ALK(C1156Y),various enzymes [8]; compound 1 uM,16
same,Ambit profiling: IRAK3,various enzymes [9],2.6
same,Ambit profiling: FGFR3,various enzymes [10],5.4
same,Ambit profiling: PLK3,various enzymes [11],95
same,Ambit profiling: PKN1,various enzymes [12],72
same,Ambit profiling: PLK2,various enzymes [13],90
same,Ambit profiling: ABL1(V253F)-phosphorylated,various enzymes [14]; compound 1 uM,76
same,Ambit profiling: FYN,various enzymes [15],39
same,Ambit profiling: RIPK2,various enzymes [16],12
same,Ambit profiling: GSK3B,various enzymes [17],24
same,Ambit profiling: BLK,various enzymes [18],3.7
same,Ambit profiling: TAOK1,various enzymes [19],8.8
same,Ambit profiling: CAMK2B,various enzymes [20],65
same,Ambit profiling: SRC,various enzymes [21],25
same,Ambit profiling: PLK4,various enzymes [22],29
same,Ambit profiling: ABL1(F317L)-nonphosphorylated,various enzymes [23],55
same,Ambit profiling: ABL1(F317L)-phosphorylated,various enzymes [23],25
same,Ambit profiling: PIK3CA,various enzymes [24],100
same,Ambit profiling: ACVR2B,various enzymes [25],79
same,Ambit profiling: MEK1,various enzymes [26],17
same,Ambit profiling: SLK,various enzymes [27],2.8
same,Ambit profiling: MKNK1,various enzymes [28],100
same,Ambit profiling: RSK1(Kin.Dom.1-N-terminal),various enzymes [29],17
same,Ambit profiling: RSK1(Kin.Dom.2-C-terminal),various enzymes [29],85
same,Ambit profiling: TYRO3,various enzymes [30],87
same,Ambit profiling: GRK7,various enzymes [31],28
same,Ambit profiling: TNIK,various enzymes [32],5.6
same,Ambit profiling: INSRR,various enzymes [33],51
same,Ambit profiling: CAMK1G,various enzymes [34],88
same,Ambit profiling: YANK3,various enzymes [35],100
same,Ambit profiling: RPS6KA4(Kin.Dom.1-N-terminal),various enzymes [36],98
same,Ambit profiling: RPS6KA4(Kin.Dom.2-C-terminal),various enzymes [36],100
same,Ambit profiling: MAP3K2,various enzymes [37],0.45
same,Ambit profiling: ASK2,various enzymes [38],54
"COc1c2c(nn1C)CN(C(C)C)C(=O)CCCn1cc(c(C(F)(F)F)n1)-c1c[nH]c3ncc-2cc13 [Compound 50, (Z)-5-isopropyl-35-methoxy-31-methyl-13-(trifluoromethyl)-11H,21H,31H-5-aza-2(3,5)-pyrrolo[2,3-b]pyridina-1(4,1),3(4,3)-dipyrazolacyclononaphan-6-one]",Ambit profiling: TLK1,various enzymes [1],58
same,Ambit profiling: PIM3,various enzymes [2],91
same,Ambit profiling: AURKB,various enzymes [3],18
same,Ambit profiling: MAP3K4,various enzymes [4],60
same,Ambit profiling: MKK7,various enzymes [5],80
same,Ambit profiling: CIT,various enzymes [6],31
same,Ambit profiling: MEK5,various enzymes [7],0
same,Ambit profiling: ALK(C1156Y),various enzymes [8],26
same,Ambit profiling: IRAK3,various enzymes [9],15
same,Ambit profiling: FGFR3,various enzymes [10],7.6
same,Ambit profiling: PLK3,various enzymes [11],77
same,Ambit profiling: PKN1,various enzymes [12],34
same,Ambit profiling: PLK2,various enzymes [13],95
same,Ambit profiling: ABL1(Y253F)-phosphorylated,various enzymes [14],10
same,Ambit profiling: FYN,various enzymes [15],28
same,Ambit profiling: RIPK2,various enzymes [16],11
same,Ambit profiling: GSK3B,various enzymes [17],90
same,Ambit profiling: BLK,various enzymes [18],1.6
same,Ambit profiling: TAOK1,various enzymes [19],82
same,Ambit profiling: CAMK2B,various enzymes [20],46
same,Ambit profiling: SRC,various enzymes [21],13
same,Ambit profiling: PLK4,various enzymes [22],10
same,Ambit profiling: ABL1(F317L)-nonphosphorylated,various enzymes [23],35
same,Ambit profiling: ABL1(F317L)-phosphorylated,various enzymes [23],2.5
same,Ambit profiling: PIK3CA,various enzymes [24],83
same,Ambit profiling: ACVR2B,various enzymes [25],92
same,Ambit profiling: MEK1,various enzymes [26],12
same,Ambit profiling: SLK,various enzymes [27],0.4
same,Ambit profiling: MKNK1,various enzymes [28],83
same,Ambit profiling: RSK1(Kin.Dom.1-N-terminal),various enzymes [29],3.8
same,Ambit profiling: RSK1(Kin.Dom.2-C-terminal),various enzymes [29],81
same,Ambit profiling: TYRO3,various enzymes [30],99
same,Ambit profiling: GRK7,various enzymes [31],9.7
same,Ambit profiling: TNIK,various enzymes [32],13
same,Ambit profiling: INSRR,various enzymes [33],56
same,Ambit profiling: CAMK1G,various enzymes [34],54
same,Ambit profiling: YANK3,various enzymes [35],74
same,Ambit profiling: RPS6KA4(Kin.Dom.1-N-terminal),various enzymes [36],62
same,Ambit profiling: RPS6KA4(Kin.Dom.2-C-terminal),various enzymes [36],100
same,Ambit profiling: MAP3K2,various enzymes [37],0.5
same,Ambit profiling: ASK2,various enzymes [38],98
